Source: patent publication US12195427B2, “MASP-2 inhibitors and methods of use” (priority 2018, dated 2025)
Counter-ions that a name gives are not always drawn. One block for each compound: values may come before it.

Target: MASP-2 CCP2-SP (Homo sapiens (Human), UniProt O00187)
Experiment: MASP-2 co-crystallization, X-ray crystallography and structure analysis (H-bonds, van der Waals contacts);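 on Ligand-pharmacophore element distance, pharmacophore element C2: distance from averaged pharmacophore element to bound ligand; missing value means element absent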;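 on Ligand-pharmacophore element distance, pharmacophore element C3: distance from averaged pharmacophore element to bound ligand; missing value means element absent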;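 on Ligand-pharmacophore element distance, pharmacophore element C4: distance from averaged pharmacophore element to bound ligand; missing value means element absent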;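 on Ligand-pharmacophore element distance, pharmacophore element C5: distance from averaged pharmacophore element to bound ligand; missing value means element absent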
Parameters: van der Waals contact distance, MASP-2 HIS 483 atom CD2 / van der Waals contact distance, MASP-2 HIS 483 atom NE2 / van der Waals contact distance, SER 654 C to compound atom / van der Waals contact distance, SER 654 O to compound atom / van der Waals contact distance, TRP 655 C to compound atom / van der Waals contact distance, MASP-2 GLY 528 atom CA / van der Waals contact distance TRP 655 atom CZ3 / van der Waals contact distance TRP 655 atom N / van der Waals contact distance TRP 655 atom CE3 / van der Waals contact distance GLY 656 atom C / van der Waals contact distance GLY 656 atom CA / van der Waals contact distance GLY 656 atom O / van der Waals contact distance, MASP-2 TYR 607 atom CD1 / van der Waals contact distance, MASP-2 PRO 606 atom O / d(C3,CA1) / d(CA1,N1)2 / d(H4,O1) / d(H4,O2) / d(O1,O2) / d(CA1,O2) / d(CA6,O1) / d(CA6,O2) / d(CA1,C5) / d(O2,H3) / d(N2,C2) / d(CA5,N2) / d(N2,C4) / d(N2,C6) / d(N2,CA3) / d(N2,O3) / d(O4,H2): unit not given beside the values
Details: for H-bond distance to MASP-2 ASP 627 atom OD2: ASP 627 OD2; for H-bond distance to MASP-2 GLY 656 atom N: GLY 656 N; for H-bond distance to MASP-2 GLY 656 atom O: GLY 656 O; for H-bond distance to MASP-2 SER 654 atom O: SER 654 O; for H-bond distance to MASP-2 SER 657 atom O: SER 657 O; for van der Waals contact distance, MASP-2 HIS 483 atom CD2 / van der Waals contact distance, MASP-2 HIS 483 atom NE2: Table A2-1; for van der Waals contact distance, VAL 653 CG1 to compound atom: Table A2-11; for van der Waals contact distance, TRP 655 CA to compound atom / van der Waals contact distance, SER 654 O to compound atom: Table A2-12; for Ligand-pharmacophore element distance, pharmacophore element C2 / Ligand-pharmacophore element distance, pharmacophore element C3 / Ligand-pharmacophore element distance, pharmacophore element C4 / Ligand-pharmacophore element distance, pharmacophore element C5 / Ligand-pharmacophore element distance, pharmacophore element C6 / Ligand-pharmacophore element distance, pharmacophore element C7 / Ligand-pharmacophore element distance, pharmacophore element CA1 / Ligand-pharmacophore element distance, pharmacophore element CA2 / Ligand-pharmacophore element distance, pharmacophore element CA3 / Ligand-pharmacophore element distance, pharmacophore element CA4 / Ligand-pharmacophore element distance, pharmacophore element CA5 / Ligand-pharmacophore element distance, pharmacophore element CA6: Table A4-1; for d(C3,CA1) / d(CA1,N1)2 / d(CA1,O1) / d(CA1,O2) / d(H4,O1) / d(H4,O2) / d(O1,O2): Table A5-1 pharmacophore: distance between elements, S2/S1 region; for a(C3, CA1, O1) / a(CA1, O1, O2) / a(O1, O2, H4) / a(N1, CA1, O1) b): Table A6-1 pharmacophore angle; for a(N1, CA1, O1) b): Methyl-amino-pyridine compounds; for H-bond distance to MASP-2 SER 628 atom O: SER 628 O; for van der Waals contact distance TRP 655 atom CE3 / van der Waals contact distance TRP 655 atom CZ3: Table A2-13; for van der Waals contact distance TRP 655 atom CE3: MASP-2 TRP 655 CE3, compound atom in line below; for van der Waals contact distance TRP 655 atom CZ3: MASP-2 TRP 655 CZ3
Method in brief: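 E. coli-expressed CCP2-SP (±6His); apo crystals soaked 1–2× in inhibitor-containing crystallization solution; optional 20% glycerol cryoprotection, LN2 flash-cool; synchrotron data at 1.0 wavelength; MR using 1Q3X portions, partial refinement; single pose analysed when several seen.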

[1] = Table A2-7: SER 628 (CB, O, OG)
[2] = Table A2-9, ARG 630, AA atoms CG, CZ
[3] = Table A5-2 pharmacophore distance, S3/S4 region
[4] = Table A7-1, between pharmacophore elements of the bound compound
[5] = Table A7-2, between pharmacophore elements of the bound compound

Sequence of MASP-2 CCP2-SP (O00187 445-686): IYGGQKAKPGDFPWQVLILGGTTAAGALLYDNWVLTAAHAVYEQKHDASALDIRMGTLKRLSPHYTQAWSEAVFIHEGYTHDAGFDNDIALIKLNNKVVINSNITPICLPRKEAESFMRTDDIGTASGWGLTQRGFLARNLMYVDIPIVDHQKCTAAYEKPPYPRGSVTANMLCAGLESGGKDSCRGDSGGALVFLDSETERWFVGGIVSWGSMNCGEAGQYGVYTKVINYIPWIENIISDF
Sequence of MASP-2 CCP2-SP (O00187 364-432 partner): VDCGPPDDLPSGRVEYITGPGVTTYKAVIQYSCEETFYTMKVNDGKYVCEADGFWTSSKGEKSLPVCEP

SMILES: Cc1nc(N)ccc1CNC(=O)[C@H](C)NC(=O)[C@H]1C[C@@H](Cc2ccccc2)CCN1 [compound 1353, (2R,4S)—N—((S)-1-(((6-Amino-2-methylpyridin-3-yl)methyl)amino)-1-oxopropan-2-yl)-4-benzylpiperidine-2-carboxamide]
H-bond distance to MASP-2 ASP 627 atom OD2 (Table A1 (H-Bonds)): 3.17
H-bond distance to MASP-2 GLY 656 atom N (Table A1 (H-Bonds)): 3.15
H-bond distance to MASP-2 GLY 656 atom O (Table A1 (H-Bonds)): 2.85
H-bond distance to MASP-2 SER 654 atom O (Table A1 (H-Bonds)): 3
H-bond distance to MASP-2 SER 657 atom O (Table A1 (H-Bonds)): 2.91
van der Waals contact distance, MASP-2 HIS 483 atom CD2: 3.77
van der Waals contact distance, MASP-2 HIS 483 atom NE2: 3.67
van der Waals contact distance, MASP-2 PHE 529 atom CD2 (Table A2-3): 3.68
van der Waals contact distance, MASP-2 TYR 607 atom CD1 (Table A2-4): 3.75
van der Waals contact distance, MASP-2 amino acid atom to compound atom [1]: 3.66
van der Waals contact distance, MASP-2 amino acid atom to compound atom [2]: 3.74
van der Waals contact distance, VAL 653 CG1 to compound atom: 3.3
van der Waals contact distance, TRP 655 CA to compound atom: 3.3
Ligand-pharmacophore element distance, pharmacophore element C2: 0.58
Ligand-pharmacophore element distance, pharmacophore element C3: 0.13
Ligand-pharmacophore element distance, pharmacophore element C4: 0
Ligand-pharmacophore element distance, pharmacophore element C5: 0
Ligand-pharmacophore element distance, pharmacophore element C6: 0
Ligand-pharmacophore element distance, pharmacophore element C7: 0
Ligand-pharmacophore element distance, pharmacophore element CA1: 0.61
Ligand-pharmacophore element distance, pharmacophore element CA2: 0.5
Ligand-pharmacophore element distance, pharmacophore element CA3: 0
Ligand-pharmacophore element distance, pharmacophore element CA4: 0
Ligand-pharmacophore element distance, pharmacophore element CA5: 0
Ligand-pharmacophore element distance, pharmacophore element CA6: 0
d(C3,CA1): 2.85
d(CA1,N1)2: 1.36
d(CA1,O1): 4.38
d(CA1,O2): 3.79
d(H4,O1): 4.38
d(H4,O2): 3.72
d(O1,O2): 3.27
d(N2,C2) [3]: 1.45
d(N2,CA2) [3]: 6.50
d(O2,H3) [3]: 4.10
d(O2,N2) [3]: 2.69
a(C3, CA1, O1): 149.99
a(CA1, O1, O2): 103.61
a(O1, O2, H4): 133.22
a(N1, CA1, O1) b): 173.73
a(O1, O2, H3) (Table A6-2 pharmacophore angle): 146.74
a(O1, O2, N2) (Table A6-2 pharmacophore angle): 137.66
a(O2, N2, C2) (Table A6-2 pharmacophore angle): 130.69
a(O2, N2, CA2) (Table A6-2 pharmacophore angle): 157.19
Pharmacophore torsion angle a(C3, CA1, O1, H4) [4]: 23.38
Pharmacophore torsion angle a(H4, O1, O2, H3) [4]: 51.34
Pharmacophore torsion angle a(H4, O1, O2, N2) [4]: 136.30
Pharmacophore torsion angle a(N1, CA1, O1, H4) [4]: 3.14
Pharmacophore torsion angle a(O1, H4, O2, CA1) [4]: −84.72
Pharmacophore torsion angle a(O1, O2, N2, C2) [4]: 126.15
Pharmacophore torsion angle a(O1, O2, N2, CA2) [5]: 120.30

H-bond distance to MASP-2 ASP 627 atom OD2 (Table A1 (H-Bonds)): 3.15
H-bond distance to MASP-2 GLY 656 atom N (Table A1 (H-Bonds)): 3.15
H-bond distance to MASP-2 GLY 656 atom O (Table A1 (H-Bonds)): 2.77
H-bond distance to MASP-2 SER 628 atom O (Table A1 (H-Bonds)): 3.15
H-bond distance to MASP-2 SER 654 atom O (Table A1 (H-Bonds)): 3.08
H-bond distance to MASP-2 SER 657 atom O (Table A1 (H-Bonds)): 2.88
van der Waals contact distance, MASP-2 HIS 483 atom CD2: 3.71
van der Waals contact distance, MASP-2 HIS 483 atom NE2: 3.59
van der Waals contact distance, MASP-2 PHE 529 atom CD2 (Table A2-3): 3.8
van der Waals contact distance, MASP-2 amino acid atom to compound atom (Table A2-6: SER 611 (CB, OG), ASP 627 (CG, OD1, OD2), SER 628 (C, CA)): 3.71
van der Waals contact distance, MASP-2 amino acid atom to compound atom [1]: 3.56
van der Waals contact distance, MASP-2 amino acid atom to compound atom [2]: 3.86
van der Waals contact distance, MASP-2 amino acid atom to compound atom (Table A2-9 second part, ARG 630, AA atoms N, NE, NH1): 3.8
van der Waals contact distance, VAL 653 CG1 to compound atom: 3.35
van der Waals contact distance, SER 654 O to compound atom: 3.87
van der Waals contact distance, TRP 655 CA to compound atom: 3.29
van der Waals contact distance TRP 655 atom CE3: 3.89
van der Waals contact distance TRP 655 atom CZ3: 3.86
Ligand-pharmacophore element distance, pharmacophore element C2: 0
Ligand-pharmacophore element distance, pharmacophore element C3: 0.13
Ligand-pharmacophore element distance, pharmacophore element C4: 0
Ligand-pharmacophore element distance, pharmacophore element C5: 0
Ligand-pharmacophore element distance, pharmacophore element C6: 0
Ligand-pharmacophore element distance, pharmacophore element C7: 0
Ligand-pharmacophore element distance, pharmacophore element CA1: 0.5
Ligand-pharmacophore element distance, pharmacophore element CA2: 0.57
Ligand-pharmacophore element distance, pharmacophore element CA3: 0
Ligand-pharmacophore element distance, pharmacophore element CA4: 0
Ligand-pharmacophore element distance, pharmacophore element CA5: 3.27
Ligand-pharmacophore element distance, pharmacophore element CA6: 0
d(C3,CA1): 2.85
d(CA1,N1)2: 1.39
d(CA1,O1): 4.35
d(CA1,O2): 5.37
d(H4,O1): 4.37
d(H4,O2): 5.63
d(O1,O2): 4.72
d(O2,H3) [3]: 2.68
a(C3, CA1, O1): 149.67
a(CA1, O1, O2): 129.48
a(O1, O2, H4): 125.36
a(N1, CA1, O1) b): 173.97
a(O1, O2, H3) (Table A6-2 pharmacophore angle): 107.78
Pharmacophore torsion angle a(C3, CA1, O1, H4) [4]: 23.21
Pharmacophore torsion angle a(H4, O1, O2, H3) [4]: 42.45
Pharmacophore torsion angle a(N1, CA1, O1, H4) [4]: 1.25
Pharmacophore torsion angle a(O1, H4, O2, CA1) [4]: −85.54
SMILES: Cc1nc(N)ccc1CNC(=O)[C@H](C)NC(=O)c1cc(Cc2ccccc2)n[nH]1 [compound 1367, (S)—N-(1-(((6-Amino-2-methylpyridin-3-yl)methyl)amino)-1-oxopropan-2-yl)-3-benzyl-1H-pyrazole-5-carboxamide]

SMILES: CC(=O)Nc1ccc(CCN[C@H](CCc2ccccc2)C(=O)N[C@@H](C)C(=O)NCc2ccc(N)nc2C)cc1 [compound 1368, (R)-2-((4-Acetamidophenethyl)amino)-N—((S)-1-(((6-amino-2-methylpyridin-3-yl)methyl)amino)-1-oxopropan-2-yl)-4-phenylbutanamide Dihydrochloride]
H-bond distance to MASP-2 ASP 627 atom OD2 (Table A1 (H-Bonds)): 3.24
H-bond distance to MASP-2 GLY 656 atom N (Table A1 (H-Bonds)): 3.07
H-bond distance to MASP-2 PRO 606 atom O (Table A1 (H-Bonds), PRO 606 O): 3.21
H-bond distance to MASP-2 SER 628 atom O (Table A1 (H-Bonds)): 3.16
H-bond distance to MASP-2 SER 654 atom O (Table A1 (H-Bonds)): 3.04
H-bond distance to MASP-2 SER 657 atom O (Table A1 (H-Bonds)): 2.94
van der Waals contact distance, MASP-2 HIS 483 atom CD2: 3.86
van der Waals contact distance, MASP-2 HIS 483 atom NE2: 3.67
van der Waals contact distance, MASP-2 PHE 529 atom CE2 (Table A2-3): 3.79
van der Waals contact distance, MASP-2 PHE 529 atom CZ (Table A2-3): 3.71
van der Waals contact distance, MASP-2 PRO 606 atom CB (Table A2-4): 3.6
van der Waals contact distance, MASP-2 PRO 606 atom O (Table A2-4): 3.75
van der Waals contact distance, MASP-2 amino acid atom to compound atom [1]: 3.63
van der Waals contact distance, VAL 653 CG1 to compound atom: 3.32
van der Waals contact distance, SER 654 O to compound atom: 3.85
van der Waals contact distance, TRP 655 CA to compound atom: 3.29
van der Waals contact distance TRP 655 atom CE3: 3.52
van der Waals contact distance TRP 655 atom CZ3: 3.87
Ligand-pharmacophore element distance, pharmacophore element C2: 0
Ligand-pharmacophore element distance, pharmacophore element C3: 0.16
Ligand-pharmacophore element distance, pharmacophore element C4: 0
Ligand-pharmacophore element distance, pharmacophore element C5: 0
Ligand-pharmacophore element distance, pharmacophore element C6: 0
Ligand-pharmacophore element distance, pharmacophore element C7: 0
Ligand-pharmacophore element distance, pharmacophore element CA1: 0.62
Ligand-pharmacophore element distance, pharmacophore element CA2: 0.95
Ligand-pharmacophore element distance, pharmacophore element CA3: 0
Ligand-pharmacophore element distance, pharmacophore element CA4: 0
Ligand-pharmacophore element distance, pharmacophore element CA5: 2.23
Ligand-pharmacophore element distance, pharmacophore element CA6: 0
d(C3,CA1): 2.86
d(CA1,N1)2: 1.39
d(CA1,O1): 4.30
d(CA1,O2): 8.92
d(H4,O1): 4.34
d(H4,O2): 8.84
d(O1,O2): 7.07
d(CA5,N2) [3]: 4.47
d(N2,CA2) [3]: 6.36
d(O2,H3) [3]: 7.79
d(O2,N2) [3]: 4.30
a(C3, CA1, O1): 149.59
a(CA1, O1, O2): 151.69
a(O1, O2, H4): 127.75
a(N1, CA1, O1) b): 173.57
a(O1, O2, H3) (Table A6-2 pharmacophore angle): 119.72
a(O1, O2, N2) (Table A6-2 pharmacophore angle): 74.03
a(O2, N2, CA2) (Table A6-2 pharmacophore angle): 145.05
Pharmacophore torsion angle a(C3, CA1, O1, H4) [4]: 22.95
Pharmacophore torsion angle a(H4, O1, O2, H3) [4]: 40.86
Pharmacophore torsion angle a(H4, O1, O2, N2) [4]: 68.19
Pharmacophore torsion angle a(N1, CA1, O1, H4) [4]: −2.26
Pharmacophore torsion angle a(O1, H4, O2, CA1) [4]: −74.89
Pharmacophore torsion angle a(O1, O2, N2, CA2) [5]: −100.57
Pharmacophore torsion angle a(O1, O2, N2, CA5) [5]: 124.36
